According to patent US20240182531A1, “KV1.3 Blockers” (priority 2021, published 2024):
Several values for one entry are separate records, joined by “and”; a condition that tells them apart may be missing. Equal values may be shown once. Read-outs that look alike come from different tables or passages of the source. Where a SMILES comes first, the peptide text is derived from it. Bridges are numbered along the chain shown (N, C = ends). [ ]: non-standard residue; d: D form. Nle = CCCC[C@H](N)C(=O)O

What was measured:
[1] = tested on: Human peripheral blood mononuclear cells (PBMCs); type: cell-based; settings: geometric mean, at least 4 replicates, Example 5a
Procedure: Human peripheral blood mononuclear cells (PBMCs) were used to assess the effects of Kv1.3 blocker reference compounds on T-cell activation as determined by IL-2 (cytokine) release after stimulation with anti-CD3.
Human PBMCs were obtained from Precision for Medicine (Frederick, MD). Cells from 5 donors were used. Plate-bound anti-CD3 was used to stimulate bulk T cells in the PBMC preparations. Briefly, 96-well plates were coated with anti-CD3 antibody for 2 hrs at 37° C., using 50 μL of a 0.5 μg/mL anti-CD3 solution diluted in 1×PBS. Thereafter the plates were washed twice.
Kv1.3 blockers as shown in Table 8a were diluted in medium (RPMI 1640 with Glutamax-I containing 10% v/v Fetal Bovine Serum, 1% v/v penicillin-streptomycin solution) and added in a volume of 100 μL at concentrations ranging from 0.01 pM to 100 nM (tenfold dilutions). […] Finally, 1×10^5 PBMCs were added to each well in a volume of 100 μL, giving a final volume of 200 μL per well. The plates were incubated for 20-24 hours in a 37 °C/5% CO2 incubator. After centrifugation of the plates, 25 μl supernatant was transferred to IL-2 detection plates (MSD Human IL-2 Tissue Culture Kit, cat #K151AHB-2) and IL-2 was measures as described by the manufacturer (Meso Scale Discovery, Rockville, Maryland, USA).
Results are shown in Table 8a as geometric mean of IC50 values obtained from anti-CD3 stimulated human PBMC assays. All values derive from at least 4 replicates.

human Kv1.2 = target: T1, human Kv1.2 (Homo sapiens, UniProt P16389); assay: cell-based
T1 construct: expressed in transfected cells; host or cells: CHO
T1 sequence (P16389 whole entry): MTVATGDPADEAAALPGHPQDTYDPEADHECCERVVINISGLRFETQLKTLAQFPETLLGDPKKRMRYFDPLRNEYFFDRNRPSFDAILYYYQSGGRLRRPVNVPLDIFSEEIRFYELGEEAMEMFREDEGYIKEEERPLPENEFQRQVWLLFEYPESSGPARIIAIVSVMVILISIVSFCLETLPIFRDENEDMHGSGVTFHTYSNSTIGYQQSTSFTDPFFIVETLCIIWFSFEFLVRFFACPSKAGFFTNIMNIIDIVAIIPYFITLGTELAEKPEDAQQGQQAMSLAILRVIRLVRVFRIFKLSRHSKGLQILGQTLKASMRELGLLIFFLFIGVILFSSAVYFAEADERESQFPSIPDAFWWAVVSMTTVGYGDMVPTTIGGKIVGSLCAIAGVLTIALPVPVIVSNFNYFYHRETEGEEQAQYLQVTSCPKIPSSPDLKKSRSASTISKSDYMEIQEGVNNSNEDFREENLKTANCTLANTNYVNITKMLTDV

human Kv1.1 = target: T2, human Kv1.1 (Homo sapiens, UniProt Q09470); assay: cell-based
T2 construct: expressed in transfected cells; host or cells: CHO
T2 sequence (Q09470 whole entry): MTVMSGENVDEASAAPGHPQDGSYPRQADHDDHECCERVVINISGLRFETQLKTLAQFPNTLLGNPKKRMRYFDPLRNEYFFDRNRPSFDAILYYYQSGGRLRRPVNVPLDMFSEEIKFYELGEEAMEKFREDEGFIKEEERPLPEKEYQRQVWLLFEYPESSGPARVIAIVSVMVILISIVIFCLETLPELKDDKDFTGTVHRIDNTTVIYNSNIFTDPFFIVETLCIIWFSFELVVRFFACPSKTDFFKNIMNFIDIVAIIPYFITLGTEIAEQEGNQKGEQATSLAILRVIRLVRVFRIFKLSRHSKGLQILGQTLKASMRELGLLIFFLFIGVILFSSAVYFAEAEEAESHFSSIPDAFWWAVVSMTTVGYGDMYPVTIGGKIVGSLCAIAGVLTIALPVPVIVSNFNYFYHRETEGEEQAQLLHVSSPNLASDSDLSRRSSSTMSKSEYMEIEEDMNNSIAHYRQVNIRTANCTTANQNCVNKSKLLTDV

human Kv1.6 = target: T3, human Kv1.6 (Homo sapiens, UniProt P17658); assay: cell-based
T3 construct: expressed in transfected cells; host or cells: CHO
T3 sequence (P17658 whole entry): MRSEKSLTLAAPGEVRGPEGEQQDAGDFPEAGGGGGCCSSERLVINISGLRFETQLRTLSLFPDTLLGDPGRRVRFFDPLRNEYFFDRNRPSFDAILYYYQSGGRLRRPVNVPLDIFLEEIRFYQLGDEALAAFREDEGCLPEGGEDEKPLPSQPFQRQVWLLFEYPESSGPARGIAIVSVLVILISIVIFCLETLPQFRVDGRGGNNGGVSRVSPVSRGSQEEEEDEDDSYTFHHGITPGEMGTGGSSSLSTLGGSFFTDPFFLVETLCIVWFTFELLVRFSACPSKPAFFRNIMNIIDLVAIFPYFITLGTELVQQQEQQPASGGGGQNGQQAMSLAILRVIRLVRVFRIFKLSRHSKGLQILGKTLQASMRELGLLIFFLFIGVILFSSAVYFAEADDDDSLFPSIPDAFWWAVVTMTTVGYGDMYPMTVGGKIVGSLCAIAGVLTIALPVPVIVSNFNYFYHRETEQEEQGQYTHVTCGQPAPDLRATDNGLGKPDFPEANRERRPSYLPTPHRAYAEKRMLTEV

[2] = Pharmacokinetic characterisation after single s.c. injection in Sprague Dawley rats; settings: male, rat, plasma, sc, 100 nmol/kg
Procedure: Sprague Dawley (males with a body weight of approximately 250-350 g) were given a single subcutaneous (s.c.) injection of each peptide to be tested.
Following s.c. administration of the selected compounds (dose 100 nmol/kg, dosing volume either 2 mL/kg), blood samples were drawn at 5 min, 15 min, 30 min, 60 min, 2 h, 3 h, 4 h, 6 h, 8 h post-dose. At each sampling time point, samples from the rats were drawn by sublingual bleeding. After last sampling the rats were sacrificed by O2/CO2 anaesthesia. The dosing vehicle was 10 mM phosphate, 0.8% NaCl, 0.05% Polysorbate 20 (pH 6.0).
Plasma samples were analyzed after solid phase extraction (SPE) by liquid chromatography mass spectrometry (LC-MS/MS). Mean plasma concentrations were used for calculation of the pharmacokinetic parameters using the non-compartmental approach in Phoenix WinNonlin 6.4 or a later version. Plasma terminal elimination half-life (T½) was determined as In(2)/λz where λz is the magnitude of the slope of the log linear regression of the log concentration versus time profile during the terminal phase. AUCinf is the area under the plasma concentration—time curve extrapolated to infinity (AUCinf=AUClast+Clast/λz, where Clast is the last observed plasma concentration). Cmax is the maximum observed concentration, occurring at Tmax.

[3] = target: T4, human Kv1.3 voltage-gated K+ channel (Homo sapiens, UniProt P22001); assay: Kv1.3 blocker activity in FLIPR thallium assay; type: cell-based
T4 construct: host or cells: CHO-DUKX
T4 sequence (P22001 whole entry): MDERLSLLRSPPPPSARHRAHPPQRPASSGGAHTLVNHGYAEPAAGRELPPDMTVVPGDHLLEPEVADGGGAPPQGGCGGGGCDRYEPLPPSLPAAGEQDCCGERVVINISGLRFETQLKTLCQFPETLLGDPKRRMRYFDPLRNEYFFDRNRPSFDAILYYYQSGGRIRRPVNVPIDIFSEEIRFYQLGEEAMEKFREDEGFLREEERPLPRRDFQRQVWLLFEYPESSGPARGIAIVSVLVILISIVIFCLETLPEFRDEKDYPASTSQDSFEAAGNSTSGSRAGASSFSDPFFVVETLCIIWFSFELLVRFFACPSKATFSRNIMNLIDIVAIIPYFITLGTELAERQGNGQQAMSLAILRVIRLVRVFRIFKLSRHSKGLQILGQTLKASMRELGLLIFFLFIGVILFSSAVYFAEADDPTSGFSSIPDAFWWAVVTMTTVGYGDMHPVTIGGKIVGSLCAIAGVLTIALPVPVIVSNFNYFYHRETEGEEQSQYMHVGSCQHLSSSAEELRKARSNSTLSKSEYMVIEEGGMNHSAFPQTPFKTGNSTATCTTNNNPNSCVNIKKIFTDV
Procedure: A human Kv1.3 voltage-gated K+ channel cell line was purchased from Perkin Elmer (#TDS-AX-010-C-1). The cell line is based on CHO-DUKX cells stably transfected with the human Kv1.3 voltage-gated K+ channel.
The cell line was grown in MEMα with nucleotides, GlutaMAX (Gibco #32571028), 10% Foetal Bovine Serum (FBS), 0.4 mg/ml Geneticin, 100 units/ml Penicillin, and 100 μg/ml Streptomycin and seeded at 10.000 cells/well in black poly-D-lysine-coated 96 well plates.
The FluxOR™ Potassium Ion Channel Assay (Invitrogen #F10016) was used to quantitate flux of thallium ions into the cells as a response to Kv1.3 activation with a stimulus buffer causes depolarization of the cell membrane, thereby generating a fluorescent signal, proportional to channel activity. The assay was performed as described by the assay kit manufacturer including a compound pre-incubation step (30 min, 37° C., 5% CO2) in assay buffer containing 0.02% W/v casein from bovine milk (Sigma #C4765) prior to cell membrane depolarization using a final stimuli buffer composition corresponding to 0.2× FluxOR™ chloride-free buffer, 5 mM K2SO4, 1 mM Tl2SO4. The fluorescence responses were recorded and quantified (maximum response at 50 s, 37° C.) using the FLIPR® Tetra High Throughput Screening System (Molecular Devices, Inc.).
IC50 can be regarded as a measure of potency of inhibition for the respective compound. The IC50 value is a measure of the concentration of an inhibitor required to achieve half of that compound's maximal inhibition of ion channel activity in a given assay.

Rat whole blood = Rat whole blood (Rattus norvegicus, UniProt P15384); type: cell-based
Chain of Rat whole blood (P15384 whole entry): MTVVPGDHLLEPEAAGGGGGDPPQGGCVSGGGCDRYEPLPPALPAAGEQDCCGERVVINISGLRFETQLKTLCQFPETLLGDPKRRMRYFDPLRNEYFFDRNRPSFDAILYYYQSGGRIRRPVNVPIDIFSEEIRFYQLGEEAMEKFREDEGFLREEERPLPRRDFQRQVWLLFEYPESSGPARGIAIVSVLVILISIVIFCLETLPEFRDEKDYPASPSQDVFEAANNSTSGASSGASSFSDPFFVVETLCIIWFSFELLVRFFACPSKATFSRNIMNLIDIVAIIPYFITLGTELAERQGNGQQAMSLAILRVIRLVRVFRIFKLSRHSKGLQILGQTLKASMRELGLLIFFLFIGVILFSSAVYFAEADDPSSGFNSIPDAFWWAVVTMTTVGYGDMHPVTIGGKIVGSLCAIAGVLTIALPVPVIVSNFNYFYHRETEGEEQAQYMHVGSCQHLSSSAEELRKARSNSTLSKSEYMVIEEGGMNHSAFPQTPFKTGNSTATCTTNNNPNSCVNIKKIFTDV

[4] = tested on: KLH ear inflammation model in rats; type: in vivo, rat
[5] = IL-17A release, thapsigargin, 24 Hr, at least 2 replicates
[6] = ratio of patch clamp IC50 values
[7] = 100 nmol/kg SC 24 hrs prior to KLH ear challenge, +/− SD

Structure (SMILES)	Selectivity ratio Kv1.2/Kv1.3 (human Kv1.2)	Selectivity ratio Kv1.1/Kv1.3 (human Kv1.1)	Selectivity ratio Kv1.6/Kv1.3 (human Kv1.6)	AUC(0-inf) [2]	Cmax [2]	half-life [2]	IC50 (Rat whole blood; [5])	Selectivity ratio Kv1.2/Kv1.3 (human Kv1.2; [6])	% inhibition of ear thickness (AUC of Δ ear thickness 0-48 hours) [4, 7]	Selectivity ratio Kv1.1/Kv1.3 (human Kv1.1; [6])	Selectivity ratio Kv1.6/Kv1.3 (human Kv1.6; [6])	also measured
CC[C@H](C)[C@H](N)C(=O)N[C@@H](CC(N)=O)C(=O)N[C@H](C(=O)N[C@@H](CCCCN)C(=O)N[C@H]1CSSC[C@@H]2NC(=O)[C@H](CCCCN)NC(=O)CNC(=O)[C@H](Cc3ccccc3)NC(=O)[C@H](CCCNC(=N)N)NC(=O)[C@H](CCSC)NC(=O)CNC(=O)[C@H](C)NC(=O)[C@H](CC(=O)O)NC(=O)[C@H](CCCCN)NC(=O)[C@@H]3CSSC[C@@H](C(=O)N[C@@H](Cc4ccc(O)cc4)C(=O)N[C@@H](CO)C(=O)O)NC(=O)[C@H](CCCNC(=N)N)NC(=O)[C@H](CSSC[C@H](NC(=O)[C@H](CCC(N)=O)NC(=O)[C@H](CCC(N)=O)NC(=O)[C@@H]4CCCN4C(=O)[C@H](CC(C)C)NC(=O)[C@H](CO)NC1=O)C(=O)N[C@@H]([C@@H](C)CC)C(=O)N[C@@H](CCCCN)C(=O)N1CCC[C@H]1C(=O)N3)NC(=O)[C@H](CCCCN)NC(=O)[C@H](CCCCN)NC(=O)[C@H](CC(N)=O)NC(=O)[C@H](CCSC)NC2=O)C(C)C [Moka1]	31	>300	>300	–	–	–	–	–	–	–	–	anti-CD3 PBMC/IL-2 IC50 [1]: less potent in inhibiting IL-2 secretion
CCCC[C@H](NC(=O)[C@@H]1CCCN1)C(=O)N[C@@H](CCC(=O)O)C(=O)N[C@@H](CCCC)C(=O)N[C@@H](CCCNC(=N)N)C(=O)N[C@H]1CSSC[C@@H]2NC(=O)[C@H](CCCCN)NC(=O)CNC(=O)[C@H](Cc3ccccc3)NC(=O)[C@H]([C@@H](C)CC)NC(=O)[C@H](CO)NC(=O)CNC(=O)[C@H]([C@@H](C)CC)NC(=O)[C@H](C)NC(=O)[C@H](C)NC(=O)[C@H](CC(C)C)NC(=O)[C@@H]3CSSC[C@@H](C(=O)N[C@@H](Cc4ccc(O)cc4)C(=O)N4CCC[C@H]4C(=O)N[C@@H](CCCNC(=N)N)C(=O)O)NC(=O)[C@H](CCCCN)NC(=O)[C@H](CSSC[C@H](NC(=O)[C@H](CCC(=O)O)NC(=O)[C@H](C(C)C)NC(=O)[C@H](CO)NC(=O)[C@H](C)NC(=O)[C@H](Cc4c[nH]cn4)NC1=O)C(=O)N[C@@H](CCCCN)C(=O)N[C@@H](CCC(N)=O)C(=O)N[C@@H](CCCCN)C(=O)N3)NC(=O)[C@H](CCCCN)NC(=O)[C@H](CCCCN)NC(=O)[C@H](CC(N)=O)NC(=O)[C@H](CCCC)NC2=O [compound 4] (H-P[Nle]E[Nle]RCHASVECKQKCLAAIGSIFGKC[Nle]NKKCKCYPR-OH; disulfide 6-27, 12-32, 16-34)	–	–	–	138 nM·h	0.0918 µM	2.7 h	–	–	–	–	–	IC50 [3]: 0.15 nM
CCCC[C@H](NC(=O)[C@@H]1CCCN1)C(=O)N[C@@H](CCC(=O)O)C(=O)N[C@@H](CCCC)C(=O)N[C@@H](CCCNC(=N)N)C(=O)N[C@H]1CSSC[C@@H]2NC(=O)[C@H](CCCCN)NC(=O)CNC(=O)[C@H](Cc3ccccc3)NC(=O)[C@H]([C@@H](C)CC)NC(=O)[C@H](CO)NC(=O)CNC(=O)[C@H]([C@@H](C)CC)NC(=O)[C@H](C)NC(=O)[C@H](C)NC(=O)[C@H](CC(C)C)NC(=O)[C@@H]3CSSC[C@@H](C(=O)N[C@@H](Cc4ccc(O)cc4)C(=O)N4CCC[C@H]4C(=O)N[C@@H](CCCNC(=N)N)C(=O)O)NC(=O)[C@H](CCCCN)NC(=O)[C@H](CSSC[C@H](NC(=O)[C@H](CCC(=O)O)NC(=O)[C@H](C(C)C)NC(=O)[C@H](CO)NC(=O)[C@H](C)NC(=O)[C@H](CO)NC1=O)C(=O)N[C@@H](CCCCN)C(=O)N[C@@H](CCC(N)=O)C(=O)N[C@@H](CCCCN)C(=O)N3)NC(=O)[C@H](CCCCN)NC(=O)[C@H](CCCCN)NC(=O)[C@H](CC(N)=O)NC(=O)[C@H](CCCC)NC2=O [compound 14] (H-P[Nle]E[Nle]RCSASVECKQKCLAAIGSIFGKC[Nle]NKKCKCYPR-OH; disulfide 6-27, 12-32, 16-34)	–	–	–	183 nM·h	0.103 µM	1 h	0.43 nM	3384	37.7% and 42.5%	>9100	>9100	–
CCCC[C@@H]1NC(=O)[C@@H]2CSSC[C@H](NC(=O)[C@H](CCCNC(=N)N)NC(=O)[C@H](CCCC)NC(=O)[C@H](CCC(=O)O)NC(=O)[C@@H](NC(=O)[C@@H]3CCCN3)[C@@H](C)CC)C(=O)N[C@@H](CO)C(=O)N[C@@H](C)C(=O)N[C@@H](CO)C(=O)N[C@@H](C(C)C)C(=O)N[C@@H](CCC(=O)O)C(=O)N[C@H]3CSSC[C@H](NC(=O)[C@H](CCCCN)NC(=O)[C@H](CCCCN)NC(=O)[C@H](CC(N)=O)NC1=O)C(=O)N[C@@H](CCCCN)C(=O)N[C@H](C(=O)N[C@@H](Cc1ccc(O)cc1)C(=O)N1CCC[C@H]1C(=O)N[C@@H](CCCNC(=N)N)C(=O)O)CSSC[C@H](NC(=O)[C@H](CCCCN)NC(=O)[C@H](CCC(N)=O)NC(=O)[C@H](CCCCN)NC3=O)C(=O)N[C@@H](CC(C)C)C(=O)N[C@@H](C)C(=O)N[C@@H](C)C(=O)N[C@@H]([C@@H](C)CC)C(=O)NCC(=O)N[C@@H](CO)C(=O)N[C@@H]([C@@H](C)CC)C(=O)N[C@@H](Cc1ccccc1)C(=O)NCC(=O)N[C@@H](CCCCN)C(=O)N2 [compound 95] (H-PIE[Nle]RCSASVECKQKCLAAIGSIFGKC[Nle]NKKCKCYPR-OH; disulfide 6-27, 12-32, 16-34)	5630	>8600	>8600	–	–	–	–	–	–	–	–	IC50 (Rat whole blood): 0.61 nM; % inhibition of ear thickness (AUC of Δ ear thickness 0-48 hours) ([4]; rat, in vivo): 44.5%
CCCC[C@H](NC(=O)[C@@H]1CCCN1)C(=O)N[C@@H](CCC(=O)O)C(=O)N[C@@H](CCCC)C(=O)N[C@@H](CCCNC(=N)N)C(=O)N[C@H]1CSSC[C@@H]2NC(=O)[C@H](CCCCN)NC(=O)CNC(=O)[C@H](Cc3ccccc3)NC(=O)[C@H]([C@@H](C)CC)NC(=O)[C@H](CO)NC(=O)CNC(=O)[C@H]([C@@H](C)CC)NC(=O)[C@H](C)NC(=O)[C@H](C)NC(=O)[C@H](CC(C)C)NC(=O)[C@@H]3CSSC[C@@H](C(=O)N[C@@H](Cc4ccc(O)cc4)C(=O)N4CCC[C@H]4C(=O)N[C@@H](CCCNC(=N)N)C(=O)O)NC(=O)[C@H](CCCCN)NC(=O)[C@H](CSSC[C@H](NC(=O)[C@H](CCC(=O)O)NC(=O)[C@H](C(C)C)NC(=O)[C@H](CO)NC(=O)[C@H](C)NC(=O)[C@H](CO)NC1=O)C(=O)N[C@@H](C)C(=O)N[C@@H](CCC(N)=O)C(=O)N[C@@H](CCCCN)C(=O)N3)NC(=O)[C@H](CCCCN)NC(=O)[C@H](CCCCN)NC(=O)[C@H](CC(N)=O)NC(=O)[C@H](CCCC)NC2=O [compound 97] (H-P[Nle]E[Nle]RCSASVECAQKCLAAIGSIFGKC[Nle]NKKCKCYPR-OH; disulfide 6-27, 12-32, 16-34)	–	–	–	–	–	–	1.2 nM	5500	48.9%	>5500	>5500	–
